Data taken from patent US9458100B2, “Synthesis and growth regulatory activity of a prototype member of a new family of aminothiol radioprotectors” (Wisconsin Alumni Research Foundation, priority 2012, dated 2016).
Where two headings read alike, the source gives them in different places. Marks after values point to notes of the source that are not given here.

Experiments:
[1] = system: mice exposed to whole-body radiation; assay: Mouse survival after whole-body radiation (systemic radioprotection); format: in vivo; conditions: for Mouse % Survival: 8.63 Gy whole-body radiation
Experimental: Exposure of a control mouse to the same dose of radiation in the absence of PrC-210 administration (e.g., a water-only control) is 100% lethal (FIG. 4, “IP Water”). Each treatment group contained 20 mice. The dose of PrC-210 was 252 μg/g body weight.
In additional experiments, female ICR mice received 200 μl doses (e.g., 900 μg/g body weight) of PrC-210 dissolved in water by gavage at the indicated times prior to irradiation (See FIG. 6). At 0 min, mice were irradiated with 9.0 Gy of whole-body radiation in a CS^137 irradiator. Mice were returned to housing and their weights and survival were monitored for the next 60 days. There were six mice in each of the treatment groups.
[…] Survival rates greater than the 0% Survival seen in the vehicle control group were attributed to systemic radioprotection conferred by the systemically administered radioprotector molecule.

[2] = system: rats exposed to whole-body radiation; assay: Rat survival after whole-body radiation (oral radioprotection); format: in vivo
Experimental: Female Sprague-Dawley rats received 200 μl doses of PrC-210 dissolved in water by gavage a time of 60 minutes prior to irradiation (time=−60 min). […] Rats were returned to housing and their weights and survival were monitored for the next 60 days. There were six rats in each of the treatment groups. As shown by FIG. 5, oral PrC-210 confers 100% protection against an otherwise 100% lethal dose of whole-body radiation.

[3] = system: radiation dermatitis in rat skin; assay: Rat radiation dermatitis assay with topical application before irradiation; format: in vivo; conditions: topical in ethanol/water vehicle four times in the 2 h before 17.33 Gy; scored 13 days later
Experimental: To determine if PrC-210 could function as a topical radioprotector that could prevent radiation dermatitis when applied prior to a cancer patient's daily radiotherapy, a rat assay that realistically mimics human radiation dermatitis was created. This assay quantifies the severity of radiation dermatitis in rat skin 13 days after a single radiation dose of 17.33 Gy. In this study, PrC-210 was applied to rat skin in an ethanol/water delivery vehicle four times in the 2 h before irradiation, and control rats received only topical vehicle before irradiation (FIG. 2). Additional drug/irradiation groups of three rats each received either the alkyl-thiol moiety or the alkyldiamine moiety from PrC-210 in the same delivery vehicle. Following the 17.33 Gy irradiation of a […] patch of dorsal skin on the rats' backs, rats were scored 13 days later.
Molecules were applied to skin in an alcohol/water delivery vehicle prior to receiving a 17.33 Gy radiation dose to the 1.5 cm×3.0 cm skin site. Radiation dermatitis severity (e.g., % of the site covered by scab material) was scored 13 days following irradiation.

[4] = Biodistribution of intravenous bolus of 14C PrC-210 in rat; format: in vivo
Experimental: During the development of embodiments of the technology provided herein, experiments were conducted to test the biodistribution of an intravenous bolus dose of radiolabeled (e.g., ^14C) PrC-210 in a rat host. In these experiments, an intravenous bolus of 100 μCi of ^14C PrC-210 was administered into an indwelling catheter in a 300 g rat.

rat [5] = assay: Rat aortic blood pressure monitoring (hypotension side effect); format: in vivo; conditions: anesthetized rats, intraperitoneal injection
Experimental: Blood pressure was monitored in the aortic artery of rats using a high-fidelity pressure transducer. Rats were continually anesthetized with 2% isofluorane, and drug doses were administered by intraperitoneal injection. Rats received intraperitoneal saline injections until these injections induced no change in monitored blood pressure. Indicated doses of PrC-210 or amifostine (FIG. 8) were administered and changes in blood pressure and heart rate were recorded. A condensed summary of drug-induced changes for all cannulated rats is shown in panel C. Doses of epinephrine (Epi; hypertensive) were also recurrently admininesterod to test if previous PrC-210 or amifostine doses could be modified.

mouse [6] = assay: Systemic toxicity, maximum tolerated dose in mouse; format: in vivo; conditions: for Mouse IP MTD: intraperitoneal
Experimental: (§1) During the development of embodiments of the technology provided herein, embodiments of compounds described herein and/or encompassed by the synthetic schemes were tested for systemic toxicity and radioprotection in mouse and rat models (Table 2). Toxic doses are shown as the “maximum tolerated dose” (“MTD”) for intraperitoneal (IP), oral, and subcutaneous (SC) administration routes in Table 2.
(§2) Doses expressed as a fraction of “MTD” are expressed as a fraction of the “maximum tolerated dose”. Doses expressed in units of ug/g correspond to micrograms of the compound per gram of body weight.

rat [7] = assay: Systemic toxicity, maximum tolerated dose in rat; format: in vivo
Experimental: as §1, §2

ferret = assay: Ferret retch/emesis model; format: in vivo
mouse [8] = conditions: intraperitoneal; published value; cited from earlier work

Q: Which “Mouse % Survival” value ([1]; at IP 0.5 MTD: 211 ug/g) does the source give for `CNCC(CS)CNC` [PrC-210, 3-(methyl-amino)-2-((methylamino)methyl)propane-1-thiol] here?
A: 98%

Q: And the “Mouse % Survival” value ([1]; at IP 0.5 MTD: 252 ug/g)?
A: 100%

Q: What about the “Mouse % Survival” value ([1]; at ORAL 0.87 MTD: 1550 ug/g (only dose tested)) of the same compound?
A: 100%

Q: What about the “protection against otherwise 100% lethal whole-body radiation” value ([1]; female ICR mice, oral 900 μg/g body weight, 60 minutes before 9.0 Gy) of the same compound?
A: 100%

Q: What about the survival ([1]; mouse, IP 252 μg/g body weight, 30 minutes before 8.75 Gy whole-body radiation) of the same compound?
A: 100%

Q: What about the “Rat % Survival” value ([2]; at ORAL 0.5 MTD: 900 ug/g, 9.5 Gy whole-body radiation) of the same compound?
A: 100% (at ORAL 0.5 MTD: 900 ug/g)

Q: What about the “protection against otherwise 100% lethal whole-body radiation” value ([2]; female Sprague-Dawley rats, oral gavage 60 minutes prior, monitored 60 days) of the same compound?
A: 100%

Q: What about the “prevention of radiation dermatitis” value [3] of the same compound?
A: completely prevent radiation dermatitis

Q: And the “Recovery (carcass)” value ([4]; 100 uCi IV)?
A: 6.89%

Q: And the Cmax ([4]; 100 uCi IV 14C PrC-210)?
A: 21,400 ng-eq/g

Q: What about the Tmax ([4]; 100 uCi IV 14C PrC-210) of the same compound?
A: 30 min

Q: What about the “Recovery2 (systemic)” value ([4]; 100 uCi IV, excreta + carcass) of the same compound?
A: 81.23%

Q: And the “Recovery3 (total)” value ([4]; 100 uCi IV, systemic + skin + cage wash + cage wipe + enclosure)?
A: 84.20%

Q: And the “Recovery1 (excreta)” value ([4]; 100 uCi IV, urine + urine wipes + feces)?
A: 74.34%

Q: And the “administered radioactivity eliminated via feces” value ([4]; intravenous 14C PrC-210)?
A: approximately 10%

Q: And the “administered radioactivity eliminated via urine” value ([4]; intravenous 14C PrC-210)?
A: approximately 50%

Q: And the hypotension side effects (rat [5])?
A: does not cause hypotension side effects

Q: And the “Mouse IP MTD” value (mouse [6]; determined using best fit analysis of survival data)?
A: 422^b μg/g b.w.

Q: And the “Mouse IP MTD” value (mouse [6]; determined using probit analysis of survival data)?
A: 504^a μg/g b.w.

Q: And the “Mouse ORAL MTD” value (mouse [6]; oral)?
A: 1780 μg/g b.w.

Q: What about the “Mouse SC MTD” value (mouse [6]; subcutaneous) of the same compound?
A: 431 μg/g b.w.

Q: And the “Rat IP MTD” value (rat [7]; intraperitoneal)?
A: 485 μg/g b.w.

Q: What about the “Rat ORAL MTD” value (rat [7]; oral) of the same compound?
A: 1974 μg/g b.w.

Q: And the retch/emesis responses (ferret; in vivo)?
A: zero retching or emesis responses

Q: With `NCC(CN)CS` [PrC-211] as the compound, how does the “Mouse % Survival” value ([1]; at IP 0.25 MTD: 118 ug/g) read?
A: 37%

Q: And the “Mouse % Survival” value ([1]; at IP 0.5 MTD: 238 ug/g)?
A: 47%

Q: What about the “Mouse % Survival” value ([1]; at IP 0.9 MTD: 427 ug/g) of the same compound?
A: 100%

Q: What about the “Mouse IP MTD” value (mouse [6]) of the same compound?
A: 475 μg/g b.w.

Q: With `CN(C)C(=O)C(CCN1CCC(O)(c2ccc(Cl)cc2)CC1)(c1ccccc1)c1ccccc1` [Loperamide] as the compound, how does the retch/emesis responses (ferret; ferret equivalent of highest human dose, loperamide as positive control 14 days later) read?
A: robust retch/emesis response in each of the 14 ferrets

Q: Which results are given for `NCCCNCCSP(=O)(O)O` [Amifostine, amifostine, reference compound]?
A: Mouse % Survival ([1]; at IP 0.5 MTD: 400 ug/g): 88%; Mouse IP MTD (mouse [8]): 800^c μg/g b.w.; Mouse IP MTD (mouse [6]): 760^d μg/g b.w.; retch/emesis responses (ferret; in vivo): caused retch/emesis responses in each of the four ferrets tested

Q: For `CNCC(CNC)CSSCC(CNC)CNC` [PrC-210 Disulfide], which “Mouse % Survival” value ([1]; at IP 0.5 MTD: 78 ug/g) is on record?
A: <5%

Q: And the “Mouse % Survival” value ([1]; at IP 0.9 MTD: 140 ug/g)?
A: 37%

Q: And the “Mouse IP MTD” value (mouse [6])?
A: 155 μg/g b.w.
